Assay results reported in article PMC7170889, “Synthesis and evaluation of designed PKC modulators for enhanced cancer immunotherapy” (Nature Communications, 2020).

Tests used:
[1] = system: PKC; assay: PKC competitive binding assay, isoform not specified; design: species or system human; details: conventional and novel PKC isoforms
Protocol: (§1) With a panel of compounds bearing diverse functionality at C13, we began to explore how these modifications affect PKC binding and biological function. Because an obvious prerequisite for PKC pathway involvement is binding to PKC, compounds were initially evaluated for PKC affinity in a cell-free competitive binding assay with tritiated phorbol dibutyrate ([^3H]-PDBu). Assays were performed with representative members of both the conventional (PKCα) and novel (PKCδ) PKC families. Subsequently, compounds were assayed for PKC isoform translocation in real time in living cells using an optical assay. Translocation to the plasma membrane is the hallmark of PKC activation[18],[57],[60] and therefore monitoring the subcellular localization of a PKCδ-GFP fusion protein via confocal microscopy offers a convenient method for determining whether a compound enters a cell and engages its PKC isoform target. Finally and of clinical significance, we also determined the effect of compounds on CD22 surface expression in vitro in NALM6 cells, an ALL cell line previously studied in connection with CD22-targeted CAR T cell therapy, and two additional lymphoma cell lines[11],[31],[65].
(§2) PKC Binding Assay Protocol […]
(§3) competition with 3H-phorbol-12,13-dibutyrate (3H-PDBu) as described below. This procedure entails a glass-fiber filtration method to determine bound radioligand.
(§4) Preparation of PKC binding assay buffer
(§5) To a 50 mL polypropylene tube was added Tris-HCl (pH 7.4, 1 M, 1 mL), KCl (1 M, 2 mL), CaCl2 (0.1 M, 30 μL), and bovine serum albumin (BSA, 40 mg, Sigma-Aldrich). This mixture was diluted to 20 mL with deionized H2O and mixed gently. The buffer was stored on ice until use. The final […]
(§6) Supplementary Table1. PKC binding assay buffer composition.
(§7) Preparation of phosphatidylserine (PS) vesicles
(§8) For every two assays, 3.5 mg phosphatidylserine (Avanti Polar Lipids, porcine, 25 mg/mL CHCl3 solution) was concentrated by removing chloroform under a stream of nitrogen followed by reduced pressure. The solid PS was suspended as vesicles in freshly prepared PKC binding assay buffer (3.5 mL) by sonicating six times for 30 sec, with a 30 sec rest between sonications (Branson Sonifier 250, power = 2, 50% duty cycle). The resulting milky cloudy mixture (1 mg/mL) was stored […]
(§9) Preparation of PKC isoform solution
Assay PKC was prepared by dissolving a 4 μg aliquot of the indicated recombinant human PKC isoform (Invitrogen) into 11.6 mL of PKC binding assay buffer (this amount is sufficient for two assays). The diluted PKC was stored on ice for immediate use.
Preparation of 3H-PDBu solution
3H-PDBu (American Radiolabeled Chemicals, Inc.; 1 mCi/mL acetone solution; specific activity: […]) was diluted 10-fold with DMSO. The resulting 500 nM stock solution was further diluted with DMSO to 30 nM.
(§10) Preparation of analog compound dilutions
(§11) Compound dilutions were prepared by serially diluting from a chosen "high" concentration by factors of 3 or 4. For each analog compound, seven concentrations were used to define the […]
(§12) To a polypropylene tube was added 3.3 mL of 1 mg/mL PS vesicles solution, 11 mL of PKC isoform solution, and 1.1 mL of 30 nM 3H-PDBu solution were added. The resulting solution was vortexed to mix and stored on ice.
(§13) PKC binding assay protocol
- Glass-fiber filters (Whatman GF/B) were prepared by soaking them in a solution of […]

[2] = target: T1, PKCδ (Homo sapiens, UniProt Q05655); assay: PKC competitive binding assay with [3H]-phorbol dibutyrate (PKCδ); details: cell-free, competition with [3H]-PDBu, PS vesicles
T1 construct: purchased Invitrogen
Protocol: as §1, §2, §3, §4, §5, §6, §7, §8, §9
Assay PKC was prepared by dissolving a 4 μg aliquot of the indicated recombinant human PKC isoform (Invitrogen) into 11.6 mL of PKC binding assay buffer (this amount is sufficient for two assays). The diluted PKC was stored on ice for immediate use. […]
μCi/mmol) was diluted 10-fold with DMSO. The resulting 500 nM stock solution was further diluted with DMSO to 30 nM.
as §10, §11, §12, §13
- Glass-fiber filters (Whatman GF/B) were prepared by soaking them in a solution of aqueous polyethyleneimine (10% by vol, 18 mL) in deionized water (600 mL) for ≥1h.
- 500 mL "rinsing buffer" of 20 mM Tris, pH 7.4 was cooled on ice for the duration of the incubation period and for the remainder of the assay.
Triplicate data points were obtained for each analog concentration. For each data point, 280 μL of "Master Mix" Solution and 20 μL of analog compound at a specified concentration were added to a polypropylene tube. Non-specific 3H-PDBu binding was assessed in triplicate by substitution […]
μM). Maximal 3H-PDBu binding was assessed in triplicate by substitution of the analog compound with 20 μL DMSO. The solutions were vortexed to mix, incubated at 37 °C for 10 min, and […]

[3] = system: CD22 surface expression in NALM6 cells; assay: CD22 surface expression in NALM6 cells (flow cytometry); assay type: cell-based, human; details: NALM6 cells at 1 nM relative to DMSO control, 24 h incubation, washout, 24 h sub-culture, n = 3; for fold induction at 0.001 µM: Homo sapiens, NALM-6, 24 h, read-out: Fold increase CD22 expression
Protocol: CD22 Surface Expression Protocol – NALM6 Cells […]
unless otherwise noted below) at 37 ° C in an incubator (5% CO2). Cell cultures were maintained […]
Cell suspension from a confluent T75 flask (Fisher) was transferred to a 15 mL falcon tube and centrifuged at 1100 rpm for 7 minutes. The supernatant was aspirated, and the cell pellet was […]
Cells were counted using a Countess II Automated Cell
199 µL of this stock was added to 24 wells (enough for triplicate measurements for 8 different experimental conditions) in a 96-well plate. Dosing was […]
each experiment. 1 µL of DMSO or the appropriate stock solution of compound in DMSO was added to each well. Cells were incubated for 24 hours, at which point the cell suspensions were transferred to 1.5 mL Eppendorf tubes and diluted with 1.0 mL of PBS (Hyclone, without Ca2+ or Mg2+). Samples were centrifuged at 2000 rpm for 5 min at RT. The supernatant was aspirated, […]
Cells were sub-cultured between 2 […]
surface expression was assayed by flow cytometry.
Cells from one well were counted using a Countess II Automated Cell Counter (Fisher). ~200,000 – 300,000 cells from each well were added to 1.5 mL Eppendorf tubes containing PBS (final volume ~1.2 mL). The cell suspensions were centrifuged at 1500 rpm for 7 minutes at 4 °C. The supernatant was aspirated, and the cell pellet was resuspended in 99 µL of pre-chilled FACS […]
buffer (0.5% w/v BSA in PBS). […]
minutes. Samples were then diluted with an additional 1.0 mL of FACS buffer and centrifuged at 1500 rpm for 7 minutes at 4 °C. The supernatant was aspirated, the cell pellets were resuspended in 200 µL FACS buffer, and the resulting suspensions were transferred to FACS tubes (Fisher, […]
Cells were stained with DAPI and CD22 surface expression was analyzed using the FACScan Analyzer at the Stanford Shared FACS Facility. Data analysis was performed using FlowJo and Microsoft Excel.

T1 sequence (Q05655 whole entry): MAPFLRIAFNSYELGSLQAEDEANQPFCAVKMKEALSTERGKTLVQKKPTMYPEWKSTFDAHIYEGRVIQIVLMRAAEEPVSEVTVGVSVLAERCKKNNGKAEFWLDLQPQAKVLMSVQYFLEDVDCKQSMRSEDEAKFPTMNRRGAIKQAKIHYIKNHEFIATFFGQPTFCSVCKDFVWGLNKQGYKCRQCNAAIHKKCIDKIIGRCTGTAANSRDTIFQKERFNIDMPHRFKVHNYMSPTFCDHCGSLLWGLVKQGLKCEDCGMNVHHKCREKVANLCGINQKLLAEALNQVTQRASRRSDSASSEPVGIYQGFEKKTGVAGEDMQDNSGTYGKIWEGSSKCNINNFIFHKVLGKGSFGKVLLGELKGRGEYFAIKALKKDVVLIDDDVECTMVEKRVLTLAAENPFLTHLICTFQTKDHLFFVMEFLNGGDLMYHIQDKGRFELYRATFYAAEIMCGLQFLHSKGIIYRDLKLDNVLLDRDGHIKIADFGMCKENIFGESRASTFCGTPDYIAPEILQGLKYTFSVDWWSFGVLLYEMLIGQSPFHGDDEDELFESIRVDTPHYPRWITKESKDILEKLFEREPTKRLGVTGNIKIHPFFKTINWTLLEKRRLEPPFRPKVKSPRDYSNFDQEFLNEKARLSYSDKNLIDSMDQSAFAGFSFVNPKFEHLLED

Compound	PKC binding affinity in words [1]	Ki [2] [nM]	fold induction at 0.001 µM [3]	Fold increase CD22 expression [3] [fold]
CCCCCC#CC(=O)O[C@H]1/C(=C/C(=O)OC)C[C@H]2C[C@H]([C@@H](C)O)OC(=O)C[C@H](O)C[C@@H]3C[C@H](OC(C)=O)C(C)(C)[C@](O)(C[C@@H]4C[C@H](O)C[C@H](/C=C/C(C)(C)[C@]1(O)O2)O4)O3 [SUW204]	single-digit nanomolar	3.7	0.98	
CCC/C=C/C=C/C(=O)O[C@H]1/C(=C/C(=O)OC)C[C@H]2C[C@H]([C@@H](C)O)OC(=O)C[C@H](O)C[C@@H]3C[C@H](OC(C)=O)C(C)(C)[C@](O)(C[C@@H]4C[C@@H](OC(C)=O)C[C@H](/C=C/C(C)(C)[C@]1(O)O2)O4)O3 [SUW207]		5.4		1.33
CCCC=CC=CC(=O)OC1C(=CC(=O)OC)CC2CC(C(C)O)OC(=O)CC(O)CC3CC(OC(C)=O)C(C)(C)C(O)(CC4CC(OC(=O)Nc5ccccc5)CC(C=CC(C)(C)C1(O)O2)O4)O3 (stereo not drawn) [SUW208]		4.7	1.68	
CCCC=CC=CC(=O)OC1C(=CC(=O)OC)CC2CC(C(C)O)OC(=O)CC(O)CC3CC(OC(C)=O)C(C)(C)C(O)(CC4CC(OC(=O)CC56CC7CC(CC(C7)C5)C6)CC(C=CC(C)(C)C1(O)O2)O4)O3 (stereo not drawn) [SUW209]		3.5	1.45	
CCCC=CC=CC(=O)OC1C(=CC(=O)OC)CC2CC(C(C)O)OC(=O)CC(O)CC3CC(OC(C)=O)C(C)(C)C(O)(CC4CC(OC(=O)CCc5c[nH]c6ccccc56)CC(C=CC(C)(C)C1(O)O2)O4)O3 (stereo not drawn) [SUW210]		7.3	1.49	
CCCC=CC=CC(=O)OC1C(=CC(=O)OC)CC2CC(C(C)O)OC(=O)CC(O)CC3CC(OC(C)=O)C(C)(C)C(O)(CC4CC(=CC(=O)OCC)CC(C=CC(C)(C)C1(O)O2)O4)O3 (stereo not drawn) [SUW217]		9.4	1.97	
CCCC=CC=CC(=O)OC1C(=CC(=O)OC)CC2CC(C(C)O)OC(=O)CC(O)CC3CC(OC(C)=O)C(C)(C)C(O)(CC4CC(=CC(=O)OCC)CC(C=CC(C)(C)C1(O)O2)O4)O3 (stereo not drawn) [SUW218]		6.6		1.92
